Reference: US20100056570A1, “FUNGICIDES” (Syngenta Crop Protection, Inc., priority 2006, published 2010)

Compound | melting point [°C]
CSC(Oc1cc2cc(Br)cnc2cc1Cl)C(=O)NC(C)(C)C (stereo not drawn) [12 (2), 2-(3-Bromo-7-chloro-quinolin-6-yloxy)-N-tert-butyl-2-methylsulfanyl-acetamide] | 172 to 174
CSC(Oc1cc2cc(Br)cnc2cc1F)C(=O)NC(C)(C)C (stereo not drawn) [12 (6), 2-(3-Bromo-7-fluoro-quinolin-6-yloxy)-N-tert-butyl-2-methylsulfanyl-acetamide] | 144 to 145
CSC(Oc1cc2cc(I)cnc2cc1F)C(=O)NC(C)(C)C (stereo not drawn) [12 (7), 2-(3-iodo-7-fluoro-quinolin-6-yloxy)-N-tert-butyl-2-methylsulfanyl-acetamide] | 165 to 166
CSC(Oc1cc2cc(Br)cnc2cc1C)C(=O)NC(C)(C)C (stereo not drawn) [12 (13), 2-(3-Bromo-7-methyl-quinolin-6-yloxy)-N-tert-butyl-2-methylsulfanyl-acetamide] | 132 to 134
CSC(Oc1cc2cc(-c3ccsc3)cnc2cc1F)C(=O)NC(C)(C)C (stereo not drawn) [12 (30), N-tert-butyl-2-(7-fluoro-3-thiophen-3-yl-quinolin-6-yloxy)-2-methylsulfanyl-acetamide] | 170 to 173
COCC#CC(C)(C)NC(=O)C(C)(S)Oc1cc2cc(-c3ccsc3)cnc2cc1F (stereo not drawn) [251 (30), 2-(7-Fluoro-3-thiophen-3-yl-quinolin-6-yloxy)-N-(4-methoxy-1,1-dimethyl-but-2-ynyl)-2-methyl-sulfanyl-acetamide] | 132 to 134
